In PMC5384453, “A multi-functional PEGylated gold(III) compound: potent anti-cancer properties and self-assembly into nanostructures for drug co-delivery” (Chemical Science, 2016):
Like-named read-outs stand apart in the source and are kept apart here.

What was measured:
HeLa = experiment: In vitro cytotoxicity, MTT assay; type: cell-based, human; conditions: for IC50: HeLa; for Toxicity toward cancer cells compared to that toward CCD-19Lu cells, HeLa: IC50 of CCD-19Lu cells / IC50 of HeLa; for Toxicity toward cancer cells compared to that toward MIHA cells, HeLa: IC50 of MIHA cells / IC50 of HeLa; for Toxicity toward cancer cells compared to that toward NCM460 cells, HeLa: IC50 of NCM460 cells / IC50 of HeLa
Description: (§1) In vitro cytotoxicity assays. HeLa, NCI-H460, HCT116, A2780, A2780cis and
(§2) cells), respectively, were seeded in 96-well plates for 24 h. The cells were then treated with a serial concentration of gold(III) complexes and incubated at 37 °C under a 5% CO2 atmosphere for 72 h. For nanostructures of 1, 2 and NC1, they were dissolved in
(§3) cisplatin were dissolved in culture medium-DMSO solution mixture (99:1, v/v).
(§4) After incubation for 72 h, MTT in PBS solution (5 mg/mL, 10 μL) was added to each well. The plates were incubated at 37 °C under a 5% CO2 atmosphere for another 4 h, and the cells were lysed by the addition of SDS solution (10%, w/w) with 0.01 M HCl (100 μL). After incubation in dark at 37 °C overnight, the cell viability after treatment was determined by a microtitre plate reader monitoring at the absorbance at 590 nm,

NCI-H460 = experiment: In vitro cytotoxicity, MTT assay; type: cell-based, human; conditions: for Toxicity toward cancer cells compared to that toward CCD-19Lu cells, NCI-H460: IC50 of CCD-19Lu cells / IC50 of NCI-H460; for Toxicity toward cancer cells compared to that toward MIHA cells, NCI-H460: IC50 of MIHA cells / IC50 of NCI-H460; for Toxicity toward cancer cells compared to that toward NCM460 cells, NCI-H460: IC50 of NCM460 cells / IC50 of NCI-H460; for IC50: NCI-H460, MTT assay, 72 h incubation
Description: as §1, §2, §3, §4

HCT116 = experiment: In vitro cytotoxicity, MTT assay; type: cell-based, human; conditions: for IC50: HCT116, MTT assay, 72 h incubation; for Toxicity toward cancer cells compared to that toward CCD-19Lu cells, HCT-116: IC50 of CCD-19Lu cells / IC50 of HCT-116; for Toxicity toward cancer cells compared to that toward MIHA cells, HCT-116: IC50 of MIHA cells / IC50 of HCT-116; for Toxicity toward cancer cells compared to that toward NCM460 cells, HCT-116: IC50 of NCM460 cells / IC50 of HCT-116
Description: as §1, §2, §3, §4

A2780 = experiment: In vitro cytotoxicity, MTT assay; type: cell-based, human; conditions: for IC50: A2780, MTT assay, 72 h incubation; for Toxicity toward cancer cells compared to that toward CCD-19Lu cells, A2780: IC50 of CCD-19Lu cells / IC50 of A2780; for Toxicity toward cancer cells compared to that toward NCM460 cells, A2780: IC50 of NCM460 cells / IC50 of A2780; for Toxicity toward cancer cells compared to that toward MIHA cells, A2780: IC50 of MIHA cells / IC50 of A2780
Description: as §1, §2, §3, §4

A2780cis = experiment: In vitro cytotoxicity, MTT assay; type: cell-based, human; conditions: for IC50: A2780cis, MTT assay, 72 h incubation; for Resistance found in A2780cis: IC50 of A2780cis cells / IC50 of A2780 cells; for Toxicity toward cancer cells compared to that toward CCD-19Lu cells, A2780cis: IC50 of CCD-19Lu cells / IC50 of A2780cis; for Toxicity toward cancer cells compared to that toward NCM460 cells, A2780cis: IC50 of NCM460 cells / IC50 of A2780cis
Description: as §1, §2, §3, §4

A2780adr = experiment: In vitro cytotoxicity, MTT assay; type: cell-based, human; conditions: for IC50: A2780adr; for Resistance found in A2780adr: IC50 of A2780adr cells / IC50 of A2780 cells; for Toxicity toward cancer cells compared to that toward CCD-19Lu cells, A2780adr: IC50 of CCD-19Lu cells / IC50 of A2780adr; for Toxicity toward cancer cells compared to that toward MIHA cells, A2780adr: IC50 of MIHA cells / IC50 of A2780adr; for Toxicity toward cancer cells compared to that toward NCM460 cells, A2780adr: IC50 of NCM460 cells / IC50 of A2780adr
Description: as §1, §2, §3, §4

MIHA = experiment: In vitro cytotoxicity, MTT assay; type: cell-based
Description: as §1, §2, §3, §4

NCM460 = experiment: In vitro cytotoxicity, MTT assay; type: cell-based, human; conditions: 72 h incubation
Description: as §1, §2, §3, §4

CCD-19Lu = experiment: In vitro cytotoxicity, MTT assay; type: cell-based, human; conditions: 72 h incubation
Description: as §1, §2, §3, §4

HCT116 cells = experiment: Hydrolysis in live cells, UPLC-QTOF-MS of cell lysates; type: in vitro ADME, human; conditions: 2 μM, 24 h
Description: Hydrolysis of the gold(III) complexes in live cells was examined by ultra-performance liquid chromatography coupled quadrupole-time-of-flight mass spectrometry (UPLC-QTOF-MS). Colon cancer cells (HCT116) were treated with 1, 2 and 3 (2 μM) for 24 h, harvested and lysed in an acetonitrile–water solution mixture (3 : 1, v/v) prior to UPLC-QTOF-MS analysis. […] Therefore, the peak is attributable to the major metabolite of 1 formed in HCT116 cells. […] This should be attributable to the higher stability of the amide bond versus the ester bond in vitro. […]
which reflected the amount of blue formazan formed. IC50 values were then determined by CompuSyn S6 from three independent measurements.
Study on the release of hydrolyzed product from 1 and 2 in aqueous buffer solutions by ICP-MS. The nanostructures of gold(III) complex was dissolved in PBS solution (pH 7.4; 1 mg/mL) or sodium acetate buffer solution (pH 4.0; 1 mg/mL) and was dialyzed against 1 L of the buffer solution at 37 °C using semipermeable minidialysis tubes (molecular weight cut-off = 1,000 Da; GE Healthcare). At a predetermined time, an aliquot of solution was removed and dissolved in HNO3/HCl solution mixture (9:1, v/v; volume of aliquot: volume of acid mixture = 1:3). The solution mixture was heated at 65 °C with shaking overnight, and the gold content was determined by ICP-MS from three independent aliquots.
Study on the hydrolysis of 1 and 2 in aqueous buffer solutions by 1H NMR. […]
The flow rate was 0.4 mL/min and the injection volume was 2 µL. The UPLC-QTOF-MS chromatograms of 1, 3, 4 and solvent control in acetonitrile were also recorded for the interpretation of UPLC-QTOF-MS chromatograms of the cell lysate. […]
Au1a (2 µM; with 1 vol% DMSO). […] An aliquot of the cell suspension was subjected to Bio-rad protein assay with a microtitre plate reader at the absorbance at 595 nm, using bovine serum albumin as the protein standard. […] The solution mixture was heated at 65 °C with shaking overnight, and the gold content was determined by ICP-MS. […]

[1] = MTT assay, 72 h incubation, read-out: IC50
[2] = 72 h, read-out: Total dose at IC50

Row | Compound | IC50 (HeLa; [1]) | Toxicity toward cancer cells compared to that toward CCD-19Lu cells, HeLa (HeLa) | Toxicity toward cancer cells compared to that toward MIHA cells, HeLa (HeLa) | Toxicity toward cancer cells compared to that toward NCM460 cells, HeLa (HeLa) | Toxicity toward cancer cells compared to that toward CCD-19Lu cells, NCI-H460 (NCI-H460) | Toxicity toward cancer cells compared to that toward MIHA cells, NCI-H460 (NCI-H460) | Toxicity toward cancer cells compared to that toward NCM460 cells, NCI-H460 (NCI-H460) | IC50 (NCI-H460) | IC50 (HCT116) | Toxicity toward cancer cells compared to that toward CCD-19Lu cells, HCT-116 (HCT116) | Toxicity toward cancer cells compared to that toward MIHA cells, HCT-116 (HCT116) | Toxicity toward cancer cells compared to that toward NCM460 cells, HCT-116 (HCT116) | IC50 (A2780) | Toxicity toward cancer cells compared to that toward CCD-19Lu cells, A2780 (A2780) | Toxicity toward cancer cells compared to that toward NCM460 cells, A2780 (A2780) | IC50 (A2780cis) | Resistance found in A2780cis (A2780cis) | Toxicity toward cancer cells compared to that toward CCD-19Lu cells, A2780cis (A2780cis) | Toxicity toward cancer cells compared to that toward NCM460 cells, A2780cis (A2780cis) | IC50 (A2780adr; [1]) | further results
1 | COC(=O)c1ccc(C2=C3C=CC(=N3)C(c3ccccc3)=c3ccc4[n]3[Au+][n]3c(ccc32)C(c2ccccc2)=C2C=CC(=N2)C=4c2ccccc2)cc1.[Cl-] [Compound 3, [Au(TPP–COOCH3)]^+] | 820 ± 120 nM | 0.9 | 0.9 | 0.2 | 6.6 | 7.0 | 1.3 | 110 ± 10 nM | 90 ± 10 nM | 8.1 | 7.7 | 1.4 | 230 ± 20 nM | 3.2 | 0.7 | 190 ± 30 nM | 1.0 | 3.8 | 0.7 | 650 ± 60 nM | Resistance found in A2780adr (A2780adr): 3.23; Toxicity toward cancer cells compared to that toward CCD-19Lu cells, A2780adr (A2780adr): 1.1; Toxicity toward cancer cells compared to that toward MIHA cells, A2780adr (A2780adr): 1.1; Toxicity toward cancer cells compared to that toward NCM460 cells, A2780adr (A2780adr): 0.2; IC50 (MIHA; [1]): 740 ± 90 nM; IC50 (NCM460): 130 ± 10 nM; IC50 (CCD-19Lu): 730 ± 40 nM; hydrolysis / release of [Au(TPP–COOH)]+ in cells (HCT116 cells): hydrolysis of the ester bond was also observed
2 | [Au(TPP–COO–PEG5000–OCH3)]Cl [Compound 1] | 1910 ± 480 nM | 8.0 | 7.6 | 8.6 | 17.9 | 17.1 | 19.3 | 850 ± 70 nM | 390 ± 30 nM | 39.0 | 37.2 | 42.1 | 510 ± 90 nM | 29.8 | 32.2 | 640 ± 30 nM | 1.27 | 23.8 | 25.6 | 1510 ± 400 nM | IC50 (HeLa; 72 h, read-out: 1 at IC50): 1910 nM; IC50 (HeLa; [2]): 1910 nM; Toxicity toward cancer cells compared to that toward MIHA cells, A2780 (A2780): 28.4; Toxicity toward cancer cells compared to that toward MIHA cells, A2780cis (A2780cis; IC50 of MIHA cells / IC50 of A2780cis): 22.7; IC50 (A2780adr; 72 h, read-out: 1 at IC50): 1510 nM; IC50 (A2780adr; [2]): 1510 nM; Resistance found in A2780adr (A2780adr): 2.94; Toxicity toward cancer cells compared to that toward CCD-19Lu cells, A2780adr (A2780adr): 10.1; Toxicity toward cancer cells compared to that toward MIHA cells, A2780adr (A2780adr): 9.1; Toxicity toward cancer cells compared to that toward NCM460 cells, A2780adr (A2780adr): 10.9; IC50 (MIHA; 72 h, read-out: 1 at IC50): 14500 nM; IC50 (MIHA; [2]): 14500 nM; IC50 (MIHA; [1]): 14500 ± 2550 nM; IC50 (NCM460): 16400 ± 2450 nM; IC50 (CCD-19Lu): 15200 ± 1930 nM; hydrolysis / release of [Au(TPP–COOH)]+ in cells (HCT116 cells): hydrolysis of the ester bond of 1 in HCT116 cells to form [Au(TPP–COOH)]^+
3 | C1=Cc2nc1c(-c1ccccc1)c1ccc([n-]1)c(-c1ccccc1)c1nc(c(-c3ccccc3)c3ccc([n-]3)c2-c2ccccc2)C=C1.[Au+3].[Cl-] [Au1a, [Au(TPP)]Cl, reference compound] | 660 ± 40 nM | 0.3 | 0.6 | 0.1 | 1.0 | 1.7 | 0.3 | 230 ± 10 nM | 90 ± 20 nM | 2.6 | 4.4 | 0.8 | 120 ± 20 nM | 1.9 | 0.6 | 180 ± 10 nM | 1.49 | 1.3 | 0.4 | 1130 ± 150 nM | Toxicity toward cancer cells compared to that toward MIHA cells, A2780 (A2780): 3.3; Resistance found in A2780adr (A2780adr): 9.09; Toxicity toward cancer cells compared to that toward CCD-19Lu cells, A2780adr (A2780adr): 0.2; Toxicity toward cancer cells compared to that toward MIHA cells, A2780adr (A2780adr): 0.4; Toxicity toward cancer cells compared to that toward NCM460 cells, A2780adr (A2780adr): 0.06; IC50 (MIHA; [1]): 400 ± 70 nM; IC50 (NCM460): 70 ± 10 nM; IC50 (CCD-19Lu): 230 ± 40 nM
